Reference: patent US8299081B2, “Methods for treating drug resistant cancer” (Novartis AG, priority 2005, dated 2012)
≈ marks a conversion by molar mass, not a printed value. Read-outs that look alike come from different tables or passages of the source.

Columns and labels:
MV4;11 tumors = test: Subcutaneous MV4;11 tumor xenograft model; assay type: in vivo, SCID-NOD mice
[1] = human, in vivo
Experimental: (§1) Phase I dose escalating multi-center open label studies were conducted to evaluate the safety, pharmacokinetics, and pharmacodynamics of Compound 1 in subjects with advanced solid malignancies. Further primary objectives of the studies included: 1) determining the Maximum Tolerated Dose (MTD); 2) identifying Dose Limiting Toxicity (DLT); and 3) assessing safety provil in subject with advanced solid tumors. Secondary objectives of the study included: 1) evaluating pharmacokinetics; 2) evaluating pharmacodynamics in plasma, peripheral blood lymphocytes, urine, and tumor cells; 3) recommending dose and schedule for future investigations; and 4) determining evidence of anti-tumor activity (RECIST). Details regarding this study are set forth below […]

P-glycoprotein = P-glycoprotein (Homo sapiens, UniProt P08183); test: P-GP substrate status; assay type: in vitro ADME
[2] = test system: advanced solid malignancies; test: Phase I dose escalating study: anti-tumor activity; assay type: in vivo, human
Experimental: as §1

RS4;11 tumors = test: Subcutaneous RS4;11 tumor xenograft model; assay type: in vivo, SCID-NOD mice
pSTAT5 in MV4;11 tumors = test: Target modulation in vivo: pSTAT5 in MV4;11 tumors; conditions: Mus musculus
[3] = test system: KM12L4A human colon tumor xenografts; test: KM12L4A human colon tumor xenografts; assay type: in vivo, nude mice; conditions: large established tumors 500 or 1000 mm^3, dosed daily
Excerpt: These compounds have also shown oral activity in a variety of angiogenesis tumor and metastases animal models.

MV4;11 cells = test: Intravenous bone marrow (BM) engraftment model MV4;11; assay type: in vivo, SCID-NOD mice
Experimental: For processing of bone marrow (BM) cells from the mouse MV4;11 engraftment model, femurs were purged with cold saline and red blood cells lysed with FACS lysis buffer (Becton Dickinson). Percent engraftment of human leukemic cells in mouse BM was determined by staining with anti-human HLA-A,B,C-FITC (vs. isotype-matched antibody-FITC control) (BD Pharmingen).
[…]. […] Mice were monitored daily and were euthanized when moribund or early signs of loss of hind limb motility. Increased life span (ILS) of treated mice was calculated as a percent increase in median survival time (MST) vs. vehicle treated control mice.
. In this model, MV4;11 cells disseminate to the bone marrow (BM), pathologically mimicking a disease pattern similar to human leukemia. […]. Histological analyses and flow cytometry were used to quantify the % engraftment of MV4;11 cells in BM (FIG. 21). In flow cytometric analyses, human MV4;11 cells were identified in mouse BM with an anti-human HLA-A,B,C antibody which binds to an epitope on human MHCl. In vehicle-treated mice, approximately 2-19% of total isolated BM cells consisted of engrafted MV4;11 cells (day 51, FIG. 21-a). This was also corroborated by immunohistochemistry with an antibody to human mitochondria which stains MV4;11 cells identifying the human cells in the mouse BM matrix (FIG. 21-b,c). […].

[4] = design: species or system human; conditions: in vivo
Experimental: Phase I dose escalating multi-center open label studies were conducted to evaluate the safety, pharmacokinetics, and pharmacodynamics of Compound 1 in subjects with advanced solid malignancies. Further primary objectives of the studies included: 1) determining the Maximum Tolerated Dose (MTD); 2) identifying Dose Limiting Toxicity (DLT); and 3) assessing safety provil in subject with advanced solid tumors. Secondary objectives of the study included: 1) evaluating pharmacokinetics; 2) evaluating pharmacodynamics in plasma, peripheral blood lymphocytes, urine, and tumor cells; 3) recommending dose and schedule for future investigations; and 4) determining evidence of anti-tumor activity (RECIST). Details regarding this study are set forth below
[…]. Plasma exposure in the 100 mg dose group approaches the range where preclinical efficacy has been noted.

[5] = test system: melphalan-resistant L1210 murine leukemia cells; conditions: cited from earlier work
[6] = test system: L1210 murine leukemia cells (parental line); conditions: cited from earlier work
[7] = MV4;11, 30 mg/kg/d, dose-response study
[8] = large MV4;11 tumors 300, 500 or 1000 mm^3, 30 mg/kg/d, n=27

Sequence of P-glycoprotein (P08183 whole entry): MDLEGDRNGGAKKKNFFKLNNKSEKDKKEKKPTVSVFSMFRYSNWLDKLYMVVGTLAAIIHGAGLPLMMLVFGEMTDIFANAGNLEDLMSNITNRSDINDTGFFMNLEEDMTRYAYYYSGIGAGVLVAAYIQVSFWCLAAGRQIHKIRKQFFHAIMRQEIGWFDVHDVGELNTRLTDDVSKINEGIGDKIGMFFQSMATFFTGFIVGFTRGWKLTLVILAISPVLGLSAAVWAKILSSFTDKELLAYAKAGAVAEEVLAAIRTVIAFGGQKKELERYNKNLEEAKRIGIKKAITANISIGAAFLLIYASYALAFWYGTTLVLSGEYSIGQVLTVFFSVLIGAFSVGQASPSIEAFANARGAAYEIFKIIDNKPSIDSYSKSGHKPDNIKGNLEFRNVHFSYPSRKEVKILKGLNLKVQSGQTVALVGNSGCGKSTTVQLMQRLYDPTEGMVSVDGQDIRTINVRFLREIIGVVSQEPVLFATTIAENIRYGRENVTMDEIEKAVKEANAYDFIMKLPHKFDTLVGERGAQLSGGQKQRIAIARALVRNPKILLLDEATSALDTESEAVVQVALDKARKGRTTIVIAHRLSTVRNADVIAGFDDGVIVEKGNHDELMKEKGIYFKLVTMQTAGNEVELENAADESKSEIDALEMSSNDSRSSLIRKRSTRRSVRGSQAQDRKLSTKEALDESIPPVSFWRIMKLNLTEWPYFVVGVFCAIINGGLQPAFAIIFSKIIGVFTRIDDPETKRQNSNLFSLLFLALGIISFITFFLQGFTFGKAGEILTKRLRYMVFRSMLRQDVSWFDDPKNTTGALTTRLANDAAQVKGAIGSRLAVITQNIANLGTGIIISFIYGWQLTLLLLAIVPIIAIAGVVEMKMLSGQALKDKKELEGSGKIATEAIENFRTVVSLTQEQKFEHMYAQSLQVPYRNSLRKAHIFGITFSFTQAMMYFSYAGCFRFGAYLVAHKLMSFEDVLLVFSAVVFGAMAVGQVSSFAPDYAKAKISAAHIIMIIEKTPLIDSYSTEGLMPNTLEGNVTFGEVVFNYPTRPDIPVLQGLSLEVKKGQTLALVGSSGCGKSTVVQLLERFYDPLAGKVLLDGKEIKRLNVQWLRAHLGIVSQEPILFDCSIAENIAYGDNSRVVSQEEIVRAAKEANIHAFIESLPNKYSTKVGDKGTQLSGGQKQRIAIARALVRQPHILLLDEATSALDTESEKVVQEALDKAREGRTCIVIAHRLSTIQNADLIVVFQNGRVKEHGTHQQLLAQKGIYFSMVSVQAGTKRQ

CN1CCN(c2ccc3nc(-c4c(N)c5c(F)cccc5[nH]c4=O)[nH]c3c2)CC1 [Compound 1, 4-amino-5-fluoro-3-[6-(4-methyl-piperazin-1-yl)-1H-benzimidazol-2-yl]-1H-quinolin-2-one]
tumor growth inhibition (TGI) (MV4;11 tumors; MV4;11, 1 mg/kg/d oral, after 2 weeks of dosing): 23% | number of CR (MV4;11 tumors; MV4;11, 30 mg/kg daily, schedule study): 1 | TGI (MV4;11 tumors; MV4;11, 30 mg/kg, intermittent dosage regimens): > 94% | complete responders (CR) (MV4;11 tumors; [7]): 1 | tumor responses (regression) (MV4;11 tumors; [7]): 9110 | PRs durable for 40 days after cessation of dosing (MV4;11 tumors; MV4;11, after 50 days of 30 mg/kg/d): approximately 50% | doses giving significant tumor growth inhibition (MV4;11 tumors; MV4;11 tumors): > 5 mg/kg/day | minimum statistically effective dose (MV4;11 tumors; MV4;11 tumors, p<0.01 vs. Vehicle): 1 mg/kg/day | complete responses (MV4;11 tumors; [8]): 15% | minor responses or remained stable (MV4;11 tumors; [8]): 15% | partial responses (MV4;11 tumors; [8]): 70% | time until tumor regressions were evident (MV4;11 tumors; large MV4;11 tumors, 30 mg/kg/d): 3 to 5 days | number of CR, second cycle (MV4;11 tumors; ten re-grown MV4;11 tumors re-treated with 30 mg/kg/d for 60 days): 2 | Anorexia, drug-related clinical adverse events ≥G2 [1]: 2 | Hypertension (DLT), drug-related clinical adverse events ≥G2 [1]: 2 (1 G3) | P-GP substrate (P-glycoprotein): not a P-GP substrate | patients with stable disease (SD) at their first evaluation ([2]; 7/22 patients): 32% | patients with SD for greater than 4 months ([2]; in vivo): 4 patients | TGI (RS4;11 tumors; 100 mg/kg/d, day 8): 48% | minimum effective dose (RS4;11 tumors; day 8, p<0.01): 100 mg/kg/day | inhibition at 10 mg/kg (pSTAT5 in MV4;11 tumors; MV4-11, read-out: inhibition of STAT5 phosphorylation in tumors, 10 mg/kg/d x 5 days, 8 hour post dose (maximum)): 90% | inhibition at 10 mg/kg (pSTAT5 in MV4;11 tumors; MV4-11, read-out: inhibition of STAT5 phosphorylation in tumors, 10 mg/kg/d x 5 days, 24 hours): 85% | inhibition at 10 mg/kg (pSTAT5 in MV4;11 tumors; MV4-11, read-out: inhibition of p-STAT5 in tumors, 10 mg/kg/d x 5 days, 48 hours post dose): 60% | treated animals with regression and/or disease stabilization [3]: 90-100% | MST (MV4;11 cells; 20 mg/kg cyclic, 7 days on/7 days off, 5 cycles): 118 days | MV4;11 cells in BM (leukemic burden) (MV4;11 cells; 20 mg/kg daily over 25 days, flow cytometry): < 1% | increased life span (ILS) (MV4;11 cells; 20 mg/kg daily, vs vehicle): 163% | plasma exposure (Cmax, AUC) versus dose [4]: increases proportionally with dose

C=C(Br)C(=O)Nc1cc(C(=O)Nc2cc(C(=O)Nc3cc(C(=O)Nc4cc(C(=O)NCCNC(=N)N)n(C)c4)n(C)c3)n(C)c2)n(C)c1 [Brostallicin]
higher activity in melphalan-resistant L1210 than in the parental line [5]: 3 fold | IC50 ([5]; melphalan-resistant L1210): 0.46 ng/mL (≈ 0.636 nM) | IC50 [6]: 1.45 ng/mL (≈ 2 nM)
